SMILES strings stand for the structures. Some results are limits rather than exact numbers.

The assay concerns the target T1, Jarid1A (Homo sapiens, UniProt P29375).
T1 construct: purchased BPS Bioscience 50110
T1 sequence (P29375 1-1090): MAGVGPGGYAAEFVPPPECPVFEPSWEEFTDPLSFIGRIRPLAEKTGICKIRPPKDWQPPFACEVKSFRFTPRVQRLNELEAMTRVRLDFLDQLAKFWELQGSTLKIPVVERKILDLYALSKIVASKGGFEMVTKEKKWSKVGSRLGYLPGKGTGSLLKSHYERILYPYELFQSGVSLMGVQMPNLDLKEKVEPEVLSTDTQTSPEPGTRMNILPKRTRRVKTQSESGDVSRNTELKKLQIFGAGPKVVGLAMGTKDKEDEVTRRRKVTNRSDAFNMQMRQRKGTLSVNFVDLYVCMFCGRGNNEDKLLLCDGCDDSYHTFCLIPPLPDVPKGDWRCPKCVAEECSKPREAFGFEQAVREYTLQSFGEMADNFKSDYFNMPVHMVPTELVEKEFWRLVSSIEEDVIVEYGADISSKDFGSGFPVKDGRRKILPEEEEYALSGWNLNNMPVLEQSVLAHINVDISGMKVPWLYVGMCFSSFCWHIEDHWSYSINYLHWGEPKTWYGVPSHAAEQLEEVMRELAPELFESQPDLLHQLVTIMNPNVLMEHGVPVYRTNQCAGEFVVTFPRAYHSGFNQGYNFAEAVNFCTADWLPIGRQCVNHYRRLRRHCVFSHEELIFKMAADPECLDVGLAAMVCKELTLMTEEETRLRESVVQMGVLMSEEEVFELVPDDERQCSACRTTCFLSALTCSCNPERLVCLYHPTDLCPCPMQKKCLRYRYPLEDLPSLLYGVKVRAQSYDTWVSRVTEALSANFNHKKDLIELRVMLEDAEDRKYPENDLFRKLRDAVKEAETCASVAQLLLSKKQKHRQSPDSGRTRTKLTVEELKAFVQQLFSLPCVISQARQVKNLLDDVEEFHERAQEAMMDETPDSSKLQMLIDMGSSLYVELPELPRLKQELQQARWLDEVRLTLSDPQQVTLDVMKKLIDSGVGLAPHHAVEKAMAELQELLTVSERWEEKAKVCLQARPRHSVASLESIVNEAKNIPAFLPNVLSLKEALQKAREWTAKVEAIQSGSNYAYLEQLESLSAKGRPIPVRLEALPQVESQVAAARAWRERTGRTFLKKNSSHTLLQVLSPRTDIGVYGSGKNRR
In words: Jarid1A in vitro enzyme inhibition assay (TR-FRET). It counts as biochemical. In outline: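 Demethylation of 300 nM biotin-H3K4me3 peptide by 1 nM baculovirus-expressed Jarid1A (aa 1–1090) with 2 μM α-ketoglutarate, Fe(II) and ascorbate, pH 7.3, 30 min at room temperature. Stopped with EDTA; H3K4me1-2 product detected by TR-FRET (Eu anti-H3K4me1-2/streptavidin-APC). IC50 fitted from 665/615 ratio over 11-point dilutions.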
Background: TR-FRET usually uses a lanthanide donor and a delayed reading to cut background.
As to `N#CCC(=O)N1CC[C@@H](n2cc(Oc3nc(O)c4ccncc4n3)cn2)C1` [Example 130, 3-[(3R)-3-[4-({4-hydroxypyrido[3,4-d]pyrimidin-2-yl}oxy)-1H-pyrazol-1-yl]pyrrolidin-1-yl]-3-oxopropanenitrile], the half-maximal inhibitory concentration (IC50) (in general, the midpoint of a concentration-inhibition curve) was not above 100 nM.
To `Oc1nc(OCc2cccc(Cl)c2Cl)nc2cnccc12` [Example 173, 2-[(2,3-dichlorophenyl)methoxy]pyrido[3,4-d]pyrimidin-4-ol] belongs 1000 to 10000 nM; to `CCC(C)COc1nc(O)c2ccncc2n1` (centres unmarked) [Example 16, 2-(2-methylbutoxy)pyrido[3,4-d]pyrimidin-4-ol], 100 to 1000 nM.
`CC(=O)N1CCC[C@H](n2cc(Oc3nc(O)c4ccncc4n3)cn2)C1` [Example 164, 1-[(3S)-3-[4-({4-hydroxypyrido[3,4-d]pyrimidin-2-yl}oxy)-1H-pyrazol-1-yl]piperidin-1-yl]ethan-1-one] had a concentration for half-maximal inhibition (IC50) not above 100 nM.
With `Oc1nc(Oc2cnn(Cc3ccccc3Cl)c2)nc2cnccc12` [Example 121, 2-({1-[(2-chlorophenyl)methyl]-1H-pyrazol-4-yl}oxy)pyrido[3,4-d]pyrimidin-4-ol], the IC50 was not above 100 nM.
Molecule `Oc1nc(Oc2cnn([C@@H]3CCN(c4ccc(F)cc4)C3)c2)nc2cnccc12` [Example 134, 2-({1-[(3R)-1-(4-fluorophenyl)pyrrolidin-3-yl]-1H-pyrazol-4-yl}oxy)pyrido[3,4-d]pyrimidin-4-ol] had an IC50 not above 100 nM.
The same measure for `O=C(C1CC1)N1CC[C@H](n2cc(Oc3nc(O)c4ccncc4n3)cn2)C1` [Example 141, 2-({1-[(3S)-1-cyclopropanecarbonylpyrrolidin-3-yl]-1H-pyrazol-4-yl}oxy)pyrido[3,4-d]pyrimidin-4-ol]: not above 100 nM.
Turning to `Oc1nc(Oc2cnn([C@H]3CCCNC3)c2)nc2cnccc12` [Example 160, 2-({1-[(3S)-piperidin-3-yl]-1H-pyrazol-4-yl}oxy)pyrido[3,4-d]pyrimidin-4-ol], the IC50 was not above 100 nM.
Take `Oc1nc(Oc2cnn([C@@H]3CCCNC3)c2)nc2cnccc12` [Example 149, 2-({1-[(3R)-piperidin-3-yl]-1H-pyrazol-4-yl}oxy)pyrido[3,4-d]pyrimidin-4-ol]: the IC50 is not above 100 nM.
`O=C(c1ccccc1)N1CCC[C@H](n2cc(Oc3nc(O)c4ccncc4n3)cn2)C1` [Example 167, 2-({1-[(3S)-1-benzoylpiperidin-3-yl]-1H-pyrazol-4-yl}oxy)pyrido[3,4-d]pyrimidin-4-ol] registered an IC50 not above 100 nM.
Molecule `COCCOc1nc(O)c2ccncc2n1` [Example 22, 2-(2-methoxyethoxy)pyrido[3,4-d]pyrimidin-4-ol] came in with an IC50 of 100 to 1000 nM.
In the case of `CC(C)CCOc1nc(O)c2ccncc2n1` [Example 15, 2-(3-methylbutoxy)pyrido[3,4-d]pyrimidin-4-ol], the IC50 was not above 100 nM.
`O=C(c1ccccc1)N1CC[C@@H](n2cc(Oc3nc(O)c4ccncc4n3)cn2)C1` [Example 132, 2-({1-[(3R)-1-benzoylpyrrolidin-3-yl]-1H-pyrazol-4-yl}oxy)pyrido[3,4-d]pyrimidin-4-ol] yielded an IC50 not above 100 nM.
The molecule `CCS(=O)(=O)N1CCC[C@H](n2cc(Oc3nc(O)c4ccncc4n3)cn2)C1` [Example 161, 2-({1-[(3S)-1-(ethanesulfonyl)piperidin-3-yl]-1H-pyrazol-4-yl}oxy)pyrido[3,4-d]pyrimidin-4-ol] registered an IC50 not above 100 nM.
Regarding `O=S(=O)(c1ccccc1)N1CC[C@H](n2cc(Oc3nc(O)c4ccncc4n3)cn2)C1` [Example 138, 2-({1-[(3S)-1-(benzenesulfonyl)pyrrolidin-3-yl]-1H-pyrazol-4-yl}oxy)pyrido[3,4-d]pyrimidin-4-ol], the IC50 was not above 100 nM.
`Oc1nc(Oc2cnn([C@H]3CCN(c4ccccc4F)C3)c2)nc2cnccc12` [Example 147, 2-({1-[(3S)-1-(2-fluorophenyl)pyrrolidin-3-yl]-1H-pyrazol-4-yl}oxy)pyrido[3,4-d]pyrimidin-4-ol] showed an IC50 not above 100 nM.
`Oc1nc(Oc2cnn(Cc3cccc(Cl)c3)c2)nc2cnccc12` [Example 122, 2-({1-[(3-chlorophenyl)methyl]-1H-pyrazol-4-yl}oxy)pyrido[3,4-d]pyrimidin-4-ol]: the half-inhibitory concentration (IC50) was not above 100 nM.
The molecule `Cn1cnc(-c2nccc3c(O)nc(O[C@@H](c4ccccc4)C(F)(F)F)nc23)c1` [Example 109, 8-(1-methyl-1H-imidazol-4-yl)-2-[(1S)-2,2,2-trifluoro-1-phenylethoxy]pyrido[3,4-d]pyrimidin-4-ol] gave an IC50 of 1000 to 10000 nM.
For the molecule `Oc1nc(OCCCC(F)(F)F)nc2cnccc12` [Example 20, 2-(4,4,4-trifluorobutoxy)pyrido[3,4-d]pyrimidin-4-ol], the IC50 is not above 100 nM.
Molecule `C[C@H](c1ccccc1F)n1cc(Oc2nc(O)c3ccncc3n2)cn1` [Example 119, 2-({1-[(1R)-1-(2-fluorophenyl)ethyl]-1H-pyrazol-4-yl}oxy)pyrido[3,4-d]pyrimidin-4-ol] gave an IC50 not above 100 nM.
`Cn1cnc(-c2nccc3c(O)nc(O[C@H](c4ccccc4)C(F)(F)F)nc23)c1` [Example 108, 8-(1-methyl-1H-imidazol-4-yl)-2-[(1R)-2,2,2-trifluoro-1-phenylethoxy]pyrido[3,4-d]pyrimidin-4-ol]: the IC50 is 1000 to 10000 nM.
Regarding `C[C@@H](c1ccccc1F)n1cc(Oc2nc(O)c3ccncc3n2)cn1` [Example 120, 2-({1-[(1s)-1-(2-fluorophenyl)ethyl]-1H-pyrazol-4-yl}oxy)pyrido[3,4-d]pyrimidin-4-ol], the IC50 is not above 100 nM.
The molecule `O=S(=O)(C1CC1)N1CC[C@@H](n2cc(Oc3nc(O)c4ccncc4n3)cn2)C1` [Example 127, 2-({1-[(3R)-1-(cyclopropanesulfonyl)pyrrolidin-3-yl]-1H-pyrazol-4-yl}oxy)pyrido[3,4-d]pyrimidin-4-ol] came in with an IC50 not above 100 nM.
`O=C(c1ccccc1)N1CC[C@H](n2cc(Oc3nc(O)c4ccncc4n3)cn2)C1` [Example 142, 2-({1-[(3S)-1-benzoylpyrrolidin-3-yl]-1H-pyrazol-4-yl}oxy)pyrido[3,4-d]pyrimidin-4-ol] showed an IC50 not above 100 nM.
The same measure for `CCS(=O)(=O)N1CCC[C@@H](n2cc(Oc3nc(O)c4ccncc4n3)cn2)C1` [Example 150, 2-({1-[(3R)-1-(ethanesulfonyl)piperidin-3-yl]-1H-pyrazol-4-yl}oxy)pyrido[3,4-d]pyrimidin-4-ol]: not above 100 nM.
For the molecule `N#CCC(=O)N1CC[C@H](n2cc(Oc3nc(O)c4ccncc4n3)cn2)C1` [Example 140, 3-[(3S)-3-[4-({4-hydroxypyrido[3,4-d]pyrimidin-2-yl}oxy)-1H-pyrazol-1-yl]pyrrolidin-1-yl]-3-oxopropanenitrile], the half-inhibitory concentration (IC50) is not above 100 nM.
In the case of `CC(Cc1ccccc1)Oc1nc(O)c2ccncc2n1` (centres unmarked) [Example 19, 2-(1-phenylpropan-2-yloxy)pyrido[3,4-d]pyrimidin-4-ol], the IC50 fell in the range of 1000 to 10000 nM.
To `CCS(=O)(=O)N1CC[C@H](n2cc(Oc3nc(O)c4ccncc4n3)cn2)C1` [Example 136, 2-({1-[(3S)-1-(ethanesulfonyl)pyrrolidin-3-yl]-1H-pyrazol-4-yl}oxy)pyrido[3,4-d]pyrimidin-4-ol] belongs not above 100 nM.
Regarding `O=C(C1CC1)N1CCC[C@H](n2cc(Oc3nc(O)c4ccncc4n3)cn2)C1` [Example 165, 2-({1-[(3S)-1-cyclopropanecarbonylpiperidin-3-yl]-1H-pyrazol-4-yl}oxy)pyrido[3,4-d]pyrimidin-4-ol], the IC50 is not above 100 nM.

The values above are taken from patent US10526327B2, “Histone demethylase inhibitors” (CELGENE QUANTICEL RESEARCH, INC., priority 2013, dated 2020).
